Assay results as given in patent publication US20240208898A1, “ENAMINE N-OXIDES: SYNTHESIS AND APPLICATION TO HYPOXIA-RESPONSIVE PRODRUGS AND IMAGING AGENTS” (DANA-FARBER CANCER INSTITUTE, INC., priority 2021, published 2024).

Columns and labels:
Type in all cases: cell-based
[1] = system: BxPC-3 cells; assay: Western blot of pimonidazole-labeled cells; conditions: 48 h, 10 μM, printed 'until after 1% pO2'
Procedure: Cells were seeded at a density of 200,000 cells per well in media [2 mL, RPMI supplemented with 5% heat-inactivated human serum (Sigma), penicillin (100 units/mL), and streptomycin (0.1 mg/mL)] in 6-well plates. Cells were incubated at 37° C. under ambient atmosphere with 5% CO2. After 24 hours, the media was aspirated and replaced with media [1 mL, RPMI supplemented with 5% heat-inactivated HS, penicillin (100 units/mL), and streptomycin (0.1 mg/mL)] containing pimonidazole (1 μL, 10 mM in water; 10 μM final concentration). Plates were then incubated at 37° C. under ambient (20% pO2) or oxygenated conditions (5%, 1%, or 0.1% pO2) with 5% CO2 for 48 hours. The oxygenated conditions were maintained using a hypoxia chamber (ProOx C21, Biospherix) in a cell culture incubator. After 48 hours, the media was aspirated, and the cells were washed with PBS (1 mL). PBS (1 mL) was then added to each well and the cells were scraped off with a cell scraper. […] The protein concentration was then determined by BCA assay following the manufacturer's protocol (Pierce). […] The dried pellet was then resuspended in an SDS solution (50 μL, 1% SDS in 50 mM Tris, pH 8.0), and the protein concentration was determined by BCA assay. […] Blots were imaged using a fluorescence scanner (Odyssey CLx, LI-COR Biosciences) and quantified by ImageJ.

[2] = system: A431 or H460 cells; assay: Staurosporine enamine N-oxide cell viability studies (MTT); conditions: compared with AQ4N
Procedure: A431 or H460 cells were seeded at a density of 12,000-13,000 cells per well in media [100 μL, RPMI supplemented with 5% heat-inactivated human serum (Sigma), penicillin (100 units/mL), and streptomycin (0.1 mg/mL)] in clear 96-well plates. PBS (100 μL) was added to the edge wells. The cells were incubated at 37° C. under ambient atmosphere with 5% CO2. After 24 hours, the media was aspirated and replaced with media [50 μL, RPMI supplemented with 5% HS, penicillin (100 units/mL), and streptomycin (0.1 mg/mL)] containing the staurosporine derivative of interest. For A431 cells, staurosporine or staurosporine derivative treatment concentrations started at 50 μM and were serially diluted 4-fold across nine wells. For H460 cells, staurosporine or staurosporine derivative treatment concentrations started at 100 μM and were serially diluted 4-fold across nine wells. […] After 48 hours, the media was aspirated, the wells were washed once with PBS (130 μL), and the cell viability was determined using the MTT assay. […] The absorbance at 570 nm was measured using a microplate reader (Clariostar Plus, BMG Labtech).
These studies were performed as previously reported (Manley et al., J. Pharmacol. Exp. Ther. 344:368-377 (2013)). […] After 72 hours, cell viability was determined using the MTT assay. […] The absorbance at 570 nm was then measured using a microplate reader (Clariostar Plus, BMG Labtech).

[3] = system: A431 cells; assay: Staurosporine release by A431 cells; conditions: 7.5×10^6 A431 cells, 100 μM compound, serum free RPMI, HPLC
Procedure: Sterilized 2 mL HPLC vials were each charged with a suspension of 7.5×10^6 cells in RPMI (1 mL) and sealed with a cap containing a septum. The vials were charged with only RPMI (1 mL) in the no cell controls. A stock solution of staurosporine enamine N-oxide 37 (10 μL, 10 mM in ethanol; 100 μM final concentration) was then added to each vial. Septa were pierced with an open 22-gauge needle for normoxic conditions. Hypoxic conditions were maintained using nitrogen lines connected to a vacuum gas manifold. The vials were maintained at 37° C. in a water bath and shaken every 15 minutes. At different time points (0, 1, 2, 4, and 8 hours), an aliquot of the cell suspension (100 μL) was removed from each vial and immediately added to acetonitrile (100 μL) containing p-nitrophenol (10 μM) as an internal standard. Quenched samples were then cooled to −20° C. for 1 hour and centrifuged at 10,000×g for 5 minutes at 4° C. The supernatant was collected and analyzed by HPLC (C18 column, 4.6×250 mm, 5 μm particle size, 1 mL/minute flow rate, eluent: gradient 0→20% MeCN/H2O+0.1% TFA (1 minute), gradient 20→40% MeCN/H2O+0.1% TFA (7 minutes), gradient 40→100% MeCN/H2O+0.1% TFA (3 minutes)). Staurosporine was quantified using its absorbance at 280 nm.

Structure (SMILES) | oxygen tension at which apparent half maximal labeling capacity (0.1% pO2) is reached [1] [% pO2] | hypoxic to normoxic cytotoxicity ratios (HCR) [2] | rate of conversion to staurosporine under hypoxic conditions relative to normoxic [3] [fold]
O=[N+]([O-])c1nccn1CC(O)CN1CCCCC1 (stereo not drawn) [Pimonidazole] | < 1 | – | –
CC[N+]([O-])(/C=C/COC(=O)N1Cc2c(c3c4ccccc4n4c3c3c2c2ccccc2n3[C@@]2(C)O[C@@H]4C[C@@H](NC)[C@H]2OC)C1=O)CC [compound 37, N,N-diethyl enamine N-oxide staurosporine] | – | compare favorably with and are complementary to those of AQ4N | ~4
